According to patent US8501777B2, “3,5-disubstituted phenyl-piperidines as modulators of dopamine neurotransmission” (NSAB, Filial AF Neurosearch Sweden AB, Sverige, priority 2005, dated 2013):
Counter-ions that a name gives are not always drawn. Like-named read-outs stand apart in the source and are kept apart here.

Tests used:
[1] = system: rats pretreated with d-amphetamine; test: Reduction of amphetamine-induced hyper-locomotion; assay type: in vivo, rat; conditions: read-out: ED50 amf (reduction of amphetamine-induced hyper-locomotion, estimated ED50 values)
Method: In this model, dopaminergic neurotransmission is increased by systemic administration of d-amphetamine at a dose that is sufficiently high to produce a large increase in locomotor activity. The ability of a compound to antagonize this hyperactivity reflects anti-dopaminergic properties, which are part of the dopaminergic stabiliser profile.
Behavioural activity was measured using eight Digiscan activity monitors (RXYZM (16) TAO, Omnitech Electronics, Columbus, Ohio, USA), connected to an Omnitech Digiscan analyzer and a Apple Macintosh computer equipped with a digital interface board (NB DIO-24, National Instruments, USA). Each activity monitor consisted of a quadratic metal frame (W×L 40×40 cm) equipped with photobeam sensors. During measurements of behavioural activity, a rat was put in a transparent acrylic cage (W×L×H, 40×40×30 cm) which in turn was placed in the activity monitor. Each activity monitor was equipped with three rows of infrared photobeam sensors, each row consisting of 16 sensors. Two rows were placed along the front and the side of the floor of the cage, at a 90° angle, and the third row was placed 10 cm above the floor to measure vertical activity. Photobeam sensors were spaced 2.5 cm apart. Each activity monitor was fitted in an identical sound and light attenuating box containing a weak house light and a fan.
Behavioural data from each activity monitor, representing the position (horizontal centre of gravity and vertical activity) of the animal at each time, were recorded at a sampling frequency of 25 Hz and collected using a custom written LABView™ application. The data from each recording session were stored and analyzed with respect to distance traveled. Each behavioural recording session lasted 60 min, starting approximately 4 min after the injection of test compound. […] The results are presented as counts/60 minutes, or counts/30 minutes, in arbitrary length units. Statistical comparisons were carried out using student's t-test vs the control group.
For most compounds, the evaluation is based on 16 amphetamine pre-treated animals over the dose range 0, 11, 33 and 100 μmol/kg s.c. in one single experiment, with complementary doses in separate experiments. Calculations are based on distance during the last 45 minutes of one hour of measurement. […] To estimate confidence levels for the parameters, the fit is repeated 100 times with a random evenly distributed squared weight (0 to 1) for every measurement value.

[2] = Metabolic stability in rat liver microsomes; assay type: in vitro ADME; conditions: 15 min incubation at 37° C., NADPH
Method: Rat liver microsomes were isolated as described by Forlin (1980) Effects of Clophen A50, 3-methylcholantrene, pregnenolone-16aq-carbonitrile and Phenobarbital on the hepatic microsomal cytochrome P-450-dependent monooxygenaser system in rainbow trout, salmo garirdneri, of different age and sex. Tox Appl Pharm. […]
1 μL of, 0.2 or 1 mM test substance diluted in water and 10 μL 20 mg/mL rat liver micro-some were mixed with 149 μL 37° C. buffer 1 and the reaction was started by addition of 40 μL 4.1 mg/mL NADPH. […] The test compound was analysed using HPLC-MS (Hewlett-Packard 1100MSD Series) with a Zorbax SB-C18 column (2.1*150 mm, 5 μm) using 0.03% formic acid and acetonitrile as mobile phase (gradient) or a Zorbax Eclipse XDB-C18 (3*75 mm, 3.5 μm) using 0.03% acetic acid and acetonitrile as mobile phase (gradient). The 15 min turnover was calculated as the fraction of test compound eliminated after 15 minutes, expressed in percent of 0 min levels, ie 100*[conc test compound at 0 min−concentration at 15 min]/conc at 0 min.

MK-801 pre-treated rats = test: Locomotor activity in MK-801 pre-treated rats; assay type: in vivo, rat; conditions: MK-801 0.7 mg/kg i.p. 90 min before test compound, recorded 30-60 min after administration
Method: Another animal model of antipsychotic activity is based on administration of the glutamate antagonist MK-801. Glutamate antagonists (i.e. NMDA antagonists), can induce psychoses in man (see Psychopharmacology, 4th Generation of progress Chapter 101, p. 1205 and 1207) and induce behavioural aberrations in animals. […] In this study the NMDA antagonist MK-801 (0.7 mg/kg i.p.) was used to create a hypoglutamatergic state where the rats display abnormal, hyperactive behaviour. Compounds in the present invention dose-dependently reverse the behavioural aberration induced by MK-801 (see Table 2).
Behavioural activity was measured using eight Digiscan activity monitors (RXYZM (16) TAO, Omnitech Electronics, Columbus, Ohio, USA), connected to an Omnitech Digiscan analyzer and a Apple Macintosh computer equipped with a digital interface board (NB DIO-24, National Instruments, USA). Each activity monitor consisted of a quadratic metal frame (W×L 40×40 cm) equipped with photobeam sensors. […]
Behavioural data from each activity monitor, representing the position (horizontal centre of gravity and vertical activity) of the animal at each time, were recorded at a sampling frequency of 25 Hz and collected using a custom written LABView™ application. The data from each recording session were stored and analyzed with respect to distance traveled. […]

hERG ion channel = hERG ion channel (Homo sapiens, UniProt Q12809); test: hERG affinity by Rapid ICE automated patch-clamp (HEK293 cells stably transfected with HERG cDNA)
Text: Rapid ICE™ (Rapid Ion Channel Electrophysiology) is an automated patch-clamp assay utilising the PatchXpress 7000A system (Axon Instruments). Rapid ICE™ assesses the effect of test substances on HERG tail current recorded from HEK293 cells stably transfected with HERG cDNA.
HERG.T.HEK (HEK293 cells stably transfected with HERG cDNA) were obtained from the University of Wisconsin. These cells are held in cryogenic storage at Quintiles and also maintained in culture. The cells are continuously maintained in and passaged using minimum essential medium supplemented with 10% foetal bovine serum, 1% non-essential amino acids, 1% sodium pyruvate and 0.4 mg/ml geneticin. For use in Rapid ICE™ studies, 4 ml of the cells are placed into falcon tubes at a density of 2.5×10^5/ml. The falcon tubes are stored in a humidified, gassed (5% CO2) incubator at 37° C. and cells are used within 2.5 h of storage. Just prior to experimentation, these cells are centrifuged at 1000 rpm for 1 min, the supernatant decanted and the cells re-suspended in 150 μl of bath solution in a 1.5 ml eppendorf tube.
The PatchXpress system is primed with appropriate extracellular (bath) and intracellular (pipette) solutions prior to conducting a study. A 16 well sealchip (Sealchip16, Aviva Bio-sciences Corp) is loaded into the system and primed before preparing cells in the bath solution suspension. The cell eppendorf is placed into the designated position and the procedure commences with the trituration and dispersion of cells into each well (recording chamber) of the sealchip. The PatchXpress system follows the general principles of conventional whole-cell patch-clamping: a high resistance seal is formed between the patch electrode and an individual cell, the membrane across the electrode tip is ruptured and the whole-cell patch-clamp configuration is established. If the quality of the cell is judged to be poor, the experiment may be terminated at this point and if necessary, the process repeated on another sealchip.
Once a stable patch has been achieved, recording commences in voltage-clamp mode, with the cell initially clamped at −80 mV. The standard voltage profile is as follows: step from −80 mV to −50 mV for 200 ms, +20 mV for 4.8 s, step to −50 mV for 5 s then step to the holding potential of −80 mV. The step from −80 mV to the test command (+20 mV) results in an outward current (i.e. current flows out of the cell) and the step from the test command (+20 mV) to −50 mV results in the tail current (the tail current represents deactivation of the current over time). […] Each value represents the average current recorded from 4 sequential voltage pulses. For each cell the effects of the test substance is determined by calculating the residual current (% control) compared with vehicle pre-treatment. […]

[3] = system: 3,4 dihydroxyphenylacetic acid (DOPAC) in striatum; test: In vivo neurochemistry: DOPAC in striatum; conditions: rat, 100 μmol/kg s.c.
Text: After the behavioural activity sessions, the rats were decapitated and their brains rapidly taken out and put on an ice-cold petri-dish. The limbic forebrain, the striatum, the frontal cortex and the remaining hemispheral parts of each rat were dissected and frozen. Each brain part was subsequently analyzed with respect to its content of monoamines and their metabolites.
The monoamine transmitter substances (NA (noradrenaline), DA (dopamine), 5-HT (serotonin)) as well as their amine (NM (normethanephrine), 3-MT (3-methoxytyramine)) and acid (DOPAC (3,4-dihydroxyphenylacetic acid), 5-HIAA (5-hydroxyindoleacetic acid), HVA (homovanillic acid)) metabolites are quantified in brain tissue homogenates by HPLC separations and electrochemical detection.
The analytical method is based on two chromatographic separations dedicated for amines or acids. Two chromatographic systems share a common auto injector with a 10-port valve and two sample loops for simultaneous injection on the two systems. Both systems are equipped with a reverse phase column (Luna C18(2), dp 3μ, 50*2 mm i.d., Phenomenex) and electrochemical detection is accomplished at two potentials on glassy carbon electrodes (MF-1000, Bioanalytical Systems, Inc.). Via a T-connection the column effluent is passed to the detection cell or to waste. […]

[4] = Oral bioavailability in rat; assay type: in vivo; conditions: plasma, oral 12.5 μmol/kg vs i.v. 5 μmol/kg, AUC ratio
Method: Experiments are performed 24 hours after implantation of arterial and venous catheters. Test compound is administered orally at 12.5 μmol/kg or intravenously at 5 μmol/kg using the venous catheters, n=3 per group. Arterial blood samples are then taken during […] at 0, 3, 9, 27, 60, 120, 180, 240, 300 and, 360 minutes after administration of the test compound. The oral bioavailability was calculated as the ratio of the AUC (Area under curve) obtained after oral administration over the AUC obtained after intravenous administration for each rat. The parameter AUC was calculated according to the following: AUC: the area under the plasma concentration versus time curve from time zero to the last concentration measured (Clast), calculated by the log/linear trapezoidal method.
The levels of test compound are measured by means of liquid chromatography-mass spectrometry (LC-MS). (Hewlett-Packard 1100MSD Series). The module include a quaternary pump system, vacuum degasser, thermostatted autosampler, thermostatted column compartment, diode array detector and API-ES spray chamber. […]
Extractions procedure: Plasma samples (0.25-0.5 ml) were diluted with water to 1 ml, and 60 pmol (100 μl) internal standard (−)-OSU6241 was added. […] The selective ion (MH^+) was monitored for each Example, and MH^+ 296 for (−)-OSU6241 ((3-[3-(ethylsulfonyl)phenyl]-1-propylpiperidine). […]

[5] = rat, test compound s.c., d-amphetamine 1.5 mg/kg i.p., distance during last 45 min of one hour

Chain of hERG ion channel (Q12809 whole entry): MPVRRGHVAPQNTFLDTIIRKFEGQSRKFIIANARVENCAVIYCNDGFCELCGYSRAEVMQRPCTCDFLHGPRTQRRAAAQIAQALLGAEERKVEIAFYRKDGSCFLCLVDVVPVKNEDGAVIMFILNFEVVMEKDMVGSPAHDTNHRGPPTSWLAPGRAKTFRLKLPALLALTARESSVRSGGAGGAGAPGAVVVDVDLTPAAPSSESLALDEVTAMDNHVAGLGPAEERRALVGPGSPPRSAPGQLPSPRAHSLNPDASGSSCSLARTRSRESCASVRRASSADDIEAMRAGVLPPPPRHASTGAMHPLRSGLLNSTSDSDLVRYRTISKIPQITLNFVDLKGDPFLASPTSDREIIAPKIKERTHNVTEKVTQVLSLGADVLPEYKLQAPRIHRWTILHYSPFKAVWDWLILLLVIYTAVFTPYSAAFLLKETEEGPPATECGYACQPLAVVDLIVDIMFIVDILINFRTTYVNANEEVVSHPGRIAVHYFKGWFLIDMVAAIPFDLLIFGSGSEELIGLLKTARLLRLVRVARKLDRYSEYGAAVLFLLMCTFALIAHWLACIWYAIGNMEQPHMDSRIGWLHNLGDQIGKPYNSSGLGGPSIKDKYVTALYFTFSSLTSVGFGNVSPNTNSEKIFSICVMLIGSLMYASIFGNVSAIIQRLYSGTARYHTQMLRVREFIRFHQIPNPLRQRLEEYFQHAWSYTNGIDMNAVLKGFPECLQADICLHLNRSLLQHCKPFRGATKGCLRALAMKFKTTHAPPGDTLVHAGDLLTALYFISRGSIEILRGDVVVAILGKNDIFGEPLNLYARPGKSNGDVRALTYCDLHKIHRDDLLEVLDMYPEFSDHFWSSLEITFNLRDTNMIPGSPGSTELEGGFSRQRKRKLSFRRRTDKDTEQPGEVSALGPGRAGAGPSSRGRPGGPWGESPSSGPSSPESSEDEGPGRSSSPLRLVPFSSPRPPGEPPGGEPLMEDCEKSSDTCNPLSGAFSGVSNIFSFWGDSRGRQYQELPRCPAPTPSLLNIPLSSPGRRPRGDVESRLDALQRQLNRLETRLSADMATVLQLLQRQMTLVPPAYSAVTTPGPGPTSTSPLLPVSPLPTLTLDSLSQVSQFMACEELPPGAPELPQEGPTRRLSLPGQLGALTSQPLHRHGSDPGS

Compound CCCN1CCC(c2cccc(S(C)(=O)=O)c2)CC1 has an ED50 ([1]; Rattus norvegicus) of 52 µmol/kg.

CCCN1CCC(c2cc(F)cc(S(C)(=O)=O)c2)CC1 (as salt: hydrochloric acid salt) [Example 1, 4-[3-fluoro-5-(methylsulfonyl)phenyl]-1-propylpiperidine] showed a melting point of 187 to 189 °C.

For CCN1CCC(c2cc(F)cc(S(C)(=O)=O)c2)CC1 (as salt: hydrochloric acid salt) [Example 2, 1-ethyl-4-[3-fluoro-5-(methylsulfonyl)phenyl]piperidine], the melting point was 176 to 178 °C.

For CCCN1CCC(c2cc(F)cc(S(C)(=O)=O)c2)CC1 [Example 1, 4-[3-fluoro-5-(methylsulfonyl)phenyl]-1-propylpiperidine], the “Turnover at 15 minutes in rat liver microsomes” value [2] was 5%, the “Locomotor activity, MK + example 100 μmol/kg” value (MK-801 pre-treated rats) was 20858 ± 4638 (P = 0.01) counts/30 min ± SEM and the ED50 [1, 5] was 12 µmol/kg. For the same compound, the IC50 (hERG ion channel) was 9.8 µM and the DOPAC in striatum [3] was 318 % of control.

For CCN1CCC(c2cc(F)cc(S(C)(=O)=O)c2)CC1 [Example 2, 1-ethyl-4-[3-fluoro-5-(methylsulfonyl)phenyl]piperidine], the “Turnover at 15 minutes in rat liver microsomes” value [2] was 0%, the “Locomotor activity, MK + example 100 μmol/kg” value (MK-801 pre-treated rats) was 24012 ± 5511 (P = 0.03) counts/30 min ± SEM and the ED50 [1, 5] was 28 µmol/kg. For the same compound, the IC50 (hERG ion channel) was 21.7 µM, the DOPAC in striatum [3] was 292 % of control and the bioavailability [4] was ~85%.

In the case of CCCN1CCC(c2ccc(Cl)c(C(F)(F)F)c2)CC1 [reference compound], the ED50 ([1]; Rattus norvegicus) is reported as 34 µmol/kg and the IC50 (hERG ion channel) is reported as 0.61 µM.

With CCCN1CCC(c2cc(F)cc(C(F)(F)F)c2)CC1 [reference compound] the ED50 [1, 5] was 14 µmol/kg and the IC50 (hERG ion channel) was 1.5 µM.
